The values that follow come from patent US20120157529A1 (priority 2009, published 2012).

Data set [1] deals with ToxT-activated genes. To be noted: cited from earlier work.
Data set [2] deals with T1, ToxT (Vibrio cholerae serotype O1, UniProt A5F384).
T1 construct: Full-length ToxT was cloned from Vibrio cholerae 0395; made in house; host or cells: E. coli BL21-CODONPLUS (DE3)-RIL
T1 sequence (A5F384 1-276): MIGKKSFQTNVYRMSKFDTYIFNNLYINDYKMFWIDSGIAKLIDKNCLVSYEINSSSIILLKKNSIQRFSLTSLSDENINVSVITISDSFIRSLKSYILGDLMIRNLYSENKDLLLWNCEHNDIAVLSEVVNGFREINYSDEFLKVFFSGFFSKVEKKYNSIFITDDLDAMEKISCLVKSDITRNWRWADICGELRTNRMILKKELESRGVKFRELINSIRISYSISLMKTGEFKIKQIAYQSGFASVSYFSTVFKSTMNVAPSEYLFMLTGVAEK
The experiment in a line: Electrophoretic mobility shift assay of ToxT binding to tcp promoter DNA. Format: biochemical. To be noted: fatty acid 0.002%; 30 minutes at 30° C. The method, then: Electrophoretic Mobility Shift Assays. Single-stranded, forty base-pair complimentary oligos (Operon) from the tcp promoter (5′-GTGTTATTAAAAAAATAAAAAAACACAGCAAAAAATGACA-3′; SEQ ID NO:1) were end labeled with a biotin-conjugated dUTP using the Biotin 3′ End Labeling Kit (Pierce) following the manufacturer's instructions and then annealed to form double-stranded fragments. EMSA's were carried out using the LightShift Chemiluminescent EMSA Kit (Pierce) following the manufacturer's instructions. Briefly, 2.5 pmole, 4 pmole, 5 pmole of ToxT were mixed with 50 fmole of double-stranded labeled DNA in a binding buffer (10 mM Tris pH 7.5, 1 mM EDTA, 100 mM KCl, 5 mM MgCl2, 1 mM DTT, 0.3 mg mL^−1 BSA, 150 μg herring sperm DNA, and 10% glycerol). Fatty acids were dissolved in methanol and added to a final concentration of 0.002% using the same volume of methanol as a control. To show specificity, a 70-fold molar excess of unlabeled double-stranded tcp fragment and a 70-fold molar excess of unlabeled nonspecific DNA (42 base pairs) were added as controls. Reactions were then incubated for 30 minutes at 30° C. and loaded on a 1×TBE 6% polyacrylamide gel at 4° C. then transferred onto a positively charged membrane (HYBOND XL, GE Healthcare) and detected by chemiluminescence. An EMSA experiment was conducted using the control reagents from the LightShift Chemiluminescent EMSA Kit following the manufacturer's instructions while adding methanol and 0.02% fatty acids.

Data set [3] concerns tcp and ctx operons. The experiment in a line: β-galactosidase assay of tcp-lacZ and ctx-lacZ fusions in V. cholerae cultures with added fatty acids. To be noted: fatty acid at 0.02% in methanol; LB medium pH 6.5, 30° C., 18 hours. The data set is classed as cell-based, Vibrio cholerae. The method, then:
Expression is based upon β-galactosidase activity of tcpA-lacZ and ctx-lacZ fusion constructs, respectively. Cells were grown in LB medium pH 6.5 at 30° C. for 18 hours +/− the indicated fatty acids at 0.02% dissolved in methanol. C, control with methanol; PA, sodium palmitate; POA, palmitoleic acid; OA, oleic acid.
β-galactosidase Assays. β-galactosidase activity was determined by conventional methods (Miller (1972) Experiments in Molecular Genetics (Cold Spring Harbor Laboratory Press, Cold Spring Harbor, N.Y.). The tcp-lacZ and ctx-lacZ strains MBN135 (Nye, et al. (2000) J. Bacteriol. 182:4295-4303) and KSK218 (Skorupski & Taylor (1997) Proc. Natl. Acad. Sci. USA 94:265-270) were grown for 18 hours in LB media pH 6.5 at 30° C. Either methanol or the indicated fatty acids were added to 0.02%.
To address whether cis-palmitoleate was capable of influencing the activity of ToxT, different UFAs and SFAs were added to cultures of V. cholerae strains carrying transcriptional fusions to the tcp and ctx operons. […].

Data set [4] relates to V. cholerae strain 0395. Description: Infant mouse cholera model, survival at 48 hours post-infection. To be noted: for protection of mice from cholera / survival versus control and methanol groups: infant mouse, 48 hours post-infection, Tukey HSD p<0.05. Format: in vivo. The method, then:
FIG. 3 is a means diamond plot. Mouse lethality data was converted to survival rates based on percentage of 48 hours at time of death. A one-way ANOVA was used to test for survival rate differences among the five groups in the challenge assay. […] Arcsine transformations were performed on the data to remove possible bias caused by percentages but there was no difference between transformed and non-transformed data. A means diamond illustrates a sample mean and 95% confidence interval. The line across each diamond represents the group mean. The vertical span of each diamond represents the 95% confidence interval for each group. Overlap marks are drawn above and below the group mean. […] The horizontal extent of each group along the x-axis (the horizontal size of the diamond) is proportional to the sample size of each level of the x variable. It follows that the narrower diamonds are usually the taller ones because fewer data points yield a less precise estimate of the group mean. Control is bacteria in broth. MeOH is methanol and MeOHC received a second dose of methanol 1 hour after infection. PA is 0.2% palmiteoleic acid dissolved in methanol and PAC includes a second dose of 0.2% palmiteoleic acid administered 1 hour after infection.
Palmiteoleic acid (0.2%) dissolved in methanol was co-administered orally with approximately a 10 lethal dose 50 (LD50) of V. cholerae strain 0395. In some cases an additional administration of palmiteoleic acid was given to the mice one hour after infection. The ability of palmiteoleic acid to prevent death from cholera was assessed at 48 hours post-infection. The results are presented in FIG. 3 as a means diamond plot.

For data set [5], the target named is T1, ToxT. To be noted: cited from earlier work.
In data set [6] the target is ToxT (Vibrio cholerae O395, UniProt A5F384 A5F384:1-276). The experiment in a line: EMSA; bound at 100-fold molar excess of protein (5 pmol ToxT to 50 fmol DNA), not at 50-fold; competed by 70-fold unlabeled probe; 5 mM MgCl2, 100 mM KCl, pH 7.5, 30. The conditions noted are these: tags: full-length; expressed as intein/CBD fusion (pTXB1, NEB IMPACT-CN), tag cleaved with DTT; label: 3' biotin-dUTP.

On to `CCCCCCCC/C=C\CCCCCCCC(=O)O` [oleic acid], for which, in data set [1], the “inhibition of expression of ToxT-activated genes” value (“inhibition” for short) is given as “strongly inhibit”. For the same molecule, the “effect on ToxT binding to DNA (40 base-pair tcp promoter probe)” value (“effect on ToxT binding to DNA” for short) in data set [2] is “completely prevented ToxT from binding to DNA”. In data set [3], the “reduction of expression of tcp and ctx operons (β-galactosidase activity of lacZ fusions)” value (from here on “reduction”) is 10-15 fold.

For the molecule `CCCCCCCCCCCCCCCCCC(=O)O` [stearic acid], the “inhibition” value in data set [1] was “not shown to inhibit”.

In the case of `CCCCCC/C=C\CCCCCCCC(=O)O` [palmitoleic acid, (Z)-9-hexadecenoic acid], the “effect on ToxT binding to DNA” value in data set [2] is “completely prevented ToxT from binding to DNA”. Moreover, the “mean survival rate (percentage of 48 hours at time of death)” value was found to be 89.389% in data set [4] (0.2% co-administered orally plus second dose 1 hour after infection, group PAC {5}) and 80.093% in data set [4] (0.2% in methanol co-administered orally with about 10 LD50 V. cholerae 0395, group PA {4}). Further, the “protection of mice from cholera / survival versus control and methanol groups” value is reported as “significantly higher survival rates” in data set [4] (listed as PA) and “extremely effective at protecting the mice from cholera” in data set [4] (listed as palmiteoleic acid). Moreover, in data set [3], the “reduction” value was 6-8 fold.

`O=C(O)CCCN1C(=O)c2cccc3cccc(c23)C1=O` [virstatin, 4-[N-(1,8-naphthalimide)]-n-butyric acid]: in data set [5], the “effect on ToxT dimerization and activation of tcp and ctx promoter transcription” value was “interferes with ToxT's ability to dimerize and activate transcription of the tcp and ctx promoters”.

For the molecule `CCCCC/C=C\C/C=C\CCCCCCCC(=O)O` [linoleic acid], the “inhibition” value in data set [1] was “strongly inhibit”.

Take `CCCCCCCCCCCCCCCC(=O)O` [palmitic acid]: in data set [1], the “inhibition” value is “not shown to inhibit”. In data set [2], the “effect on ToxT binding to DNA” value is recorded as “no effect on ToxT binding”. Also, the “reduction” value in data set [3] is given as “two-fold”.

With `CCCCC/C=C\C/C=C\C/C=C\C/C=C\CCCC(=O)O` [arachidonic acid], the “inhibition” value in data set [1] is “strongly inhibit”.

B1: tcp promoter 40 bp toxbox probe (dsDNA)
DNA 1: GTGTTATTAAAAAAATAAAAAAACACAGCAAAAAATGACA
DNA 2: TGTCATTTTTTGCTGTGTTTTTTTATTTTTTTAATAACAC
Turning to B1, the binding result in data set [6] was “binds”.
